Laboratory results: ChEMBL document CHEMBL1130434, “Simultaneous pharmacokinetic screening of a mixture of compounds in the dog using API LC/MS/MS analysis for increased throughput” (J Med Chem, 1997)

Key:
[1] = Steady-state volume of distribution of compound when administered intravenously as an individual dose to a single dog.; format: ADME, organism-based, Canis lupus familiaris; details: in vivo, iv, read-out: Vss
[2] = Clearance of compound when administered intravenously as an individual dose to a single dog.; format: ADME, organism-based, Canis lupus familiaris; details: in vivo, iv
[3] = Clearance of compound when administered intravenously as a mixture (five-in-one dose) to a single dog.; format: ADME, organism-based, Canis lupus familiaris; details: in vivo, iv
[4] = Steady-state volume of distribution of compound when administered intravenously as a mixture (five-in-one dose) to a single dog.; format: ADME, organism-based, Canis lupus familiaris; details: in vivo, iv, read-out: Vss
[5] = Elimination half-life of compound when administered intravenously as an individual dose to a single dog.; format: ADME, organism-based; details: in vivo, iv
[6] = Elimination half-life of compound when administered intravenously as a mixture (five-in-one dose) to a single dog.; format: ADME, organism-based; details: in vivo, iv

| Vd [1] | clearance [2] | clearance [3] | Vd [4] | half-life [5] | half-life [6] | SMILES |
| --- | --- | --- | --- | --- | --- | --- |
| 0.243 L/kg | 0.9 mL/min/kg | 0.86 mL/min/kg | 0.33 L/kg | 4.2 h | 4.9 h | COc1ccc(CCN2CCC(c3nc(COCC(F)(F)F)c(-c4ccc(F)cc4)o3)CC2)cc1S(N)(=O)=O |
| 3.46 L/kg | 28.9 mL/min/kg | 17.3 mL/min/kg | 2.76 L/kg | 2.1 h | 2.4 h | CNC(=O)CN(C)S(=O)(=O)c1cc(CCN2CCC(c3nc(COCC(F)(F)F)c(-c4ccccc4)o3)CC2)ccc1OC |
| 2.91 L/kg | 11.6 mL/min/kg | 11.2 mL/min/kg | 2.86 L/kg | 3.4 h | 3 h | CNC(=O)CN(C)S(=O)(=O)c1cc(CCN2CCC(c3nc(COCC(F)(F)F)c(-c4ccc(F)cc4)o3)CC2)ccc1OC |
| 0.382 L/kg | 5 mL/min/kg | 5.9 mL/min/kg | 0.473 L/kg | 1.4 h | 1.5 h | COc1ccc(CCN2CCC(c3nc(COCC(F)(F)F)c(-c4ccccc4)o3)CC2)cc1S(N)(=O)=O |
| 0.6 L/kg | 10.3 mL/min/kg | 18.7 mL/min/kg | 2.83 L/kg | 2.6 h | 2.9 h | COc1ccc(CCN2CCC(c3nc(COCC(F)(F)F)c(-c4ccccc4)o3)CC2)cc1S(=O)(=O)NCCNC(C)=O |
